The record followed here is patent US9221756B2, “Pyrrole derivatives” (priority 2011, dated 2015).

As a reminder, the IC50 is the point on the concentration scale where inhibition reaches its midpoint. A low value points to higher potency.

For one test, the target named is pneumolysin (Streptococcus pneumoniae serotype 2, UniProt Q04IN8). The experiment in a line: Inhibition of the haemolytic activity of pneumolysin (sheep erythrocytes). It counts as cell-based. Particulars: IC50, inhibition of pneumolysin-induced haemolysis of sheep erythrocytes; class symbols of Table 1.
Sequence of pneumolysin (Q04IN8 whole entry): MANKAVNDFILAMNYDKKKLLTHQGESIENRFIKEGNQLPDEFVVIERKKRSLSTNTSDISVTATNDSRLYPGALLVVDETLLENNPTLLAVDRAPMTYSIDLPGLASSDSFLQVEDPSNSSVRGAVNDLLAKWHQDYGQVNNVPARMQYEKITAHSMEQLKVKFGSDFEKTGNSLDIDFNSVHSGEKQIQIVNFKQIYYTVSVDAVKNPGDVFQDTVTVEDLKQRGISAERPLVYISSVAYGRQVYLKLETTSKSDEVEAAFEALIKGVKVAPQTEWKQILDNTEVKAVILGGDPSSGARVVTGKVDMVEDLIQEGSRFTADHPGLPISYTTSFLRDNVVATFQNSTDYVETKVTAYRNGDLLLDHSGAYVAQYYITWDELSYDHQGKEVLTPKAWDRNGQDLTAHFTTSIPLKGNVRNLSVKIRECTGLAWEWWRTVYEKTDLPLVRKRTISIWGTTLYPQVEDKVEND
On to `CCOC(=O)c1c(O)c(O)c(C(=O)N(C)C)n1-c1ccc(OCCCN2CCOCC2)cc1` [UL1-102, ethyl 5-(dimethylcarbamoyl)-3,4-dihydroxy-1-(4-(3-morpholinopropoxy)phenyl)-1H-pyrrole-2-carboxylate], for which the half-maximal inhibitory concentration (IC50) was under 10 µM.
Still for that read-out and setting: then `CCOC(=O)c1c(O)c(O)c(C(=O)N(C)C)n1-c1ccc(OCCCN2CCN(C)CC2)cc1` [UL1-103, ethyl 5-(dimethylcarbamoyl)-3,4-dihydroxy-1-(4-(3-(4-methylpiperazin-1-yl)propoxy)phenyl)-1H-pyrrole-2-carboxylate], with under 10 µM; and `CCOC(=O)c1c(OC(=O)CCOC)c(OC(=O)CCOC)c(C(=O)N(C)C)n1-c1ccc(OC)cc1` [UL1-104, 2-(dimethylcarbamoyl)-5-(ethoxycarbonyl)-1-(4-methoxyphenyl)-1H-pyrrole-3,4-diyl bis(3-methoxypropanoate)], with under 10 µM.
Same read-out and setting: then `CCOC(=O)c1c(O)c(O)c(C(=O)N(C)C)n1-c1ccc(OCCCP(=O)(OCC)OCC)cc1` [UL1-106, ethyl 1-(4-(3-(diethoxyphosphoryl)propoxy)phenyl)-5-(dimethylcarbamoyl)-3,4-dihydroxy-1H-pyrrole-2-carboxylate], with under 10 µM; and `CCOC(=O)c1c(O)c(O)c(C(=O)N(C)C)n1-c1ccc(OCCCP(=O)(O)O)cc1` [UL1-107, (3-(4-(2-(dimethylcarbamoyl)-5-(ethoxycarbonyl)-3,4-dihydroxy-1H-pyrrol-1-yl)phenoxy)propyl)phosphonic acid], with under 10 µM.
On the same count and under the same terms, under `CCOC(=O)c1c(OC(=O)C(C)(C)COCCOC)c(OC(=O)C(C)(C)COCCOC)c(C(=O)N(C)C)n1-c1ccc(OC)cc1` [UL1-108, 2-(dimethylcarbamoyl)-5-(ethoxycarbonyl)-1-(4-methoxyphenyl)-1H-pyrrole-3,4-diyl bis(3-(2-methoxyethoxy)-2,2-dimethylpropanoate)] stands 10 to 20 µM; under `CCOC(=O)c1c(O)c(O)c(C(=O)N(C)C)n1-c1ccc(OCCCS(C)(=O)=O)cc1` [UL1-110, ethyl 5-(dimethylcarbamoyl)-3,4-dihydroxy-1-(4-(3-(methylsulfonyl)propoxy)phenyl)-1H-pyrrole-2-carboxylate], under 10 µM.
`COc1ccc(-n2c(C(=O)OCC(C)(C)C)c(O)c(O)c2C(=O)N(C)C)cc1` [UL1-112, neopentyl 5-(dimethylcarbamoyl)-3,4-dihydroxy-1-(4-methoxyphenyl)-1H-pyrrole-2-carboxylate] had an IC50 of under 10 µM.
In turn, `COc1ccc(-n2c(C(=O)OC3C(C)CCCC3C)c(O)c(O)c2C(=O)N(C)C)cc1` (stereo not shown) [UL1-113, 2,6-dimethylcyclohexyl 5-(dimethylcarbamoyl)-3,4-dihydroxy-1-(4-methoxyphenyl)-1H-pyrrole-2-carboxylate] returned an IC50 of under 10 µM.
`COc1ccc(-n2c(C(=O)OC3CCCC3)c(O)c(O)c2C(=O)N(C)C)cc1` [UL1-116, cyclopentyl 5-(dimethylcarbamoyl)-3,4-dihydroxy-1-(4-methoxyphenyl)-1H-pyrrole-2-carboxylate] displayed an IC50 of under 10 µM.
`CCOC(=O)c1c(OC(=O)C(C)(C)COCCOCCOCCOCCOCCOCCOCCOC)c(OC(=O)C(C)(C)COCCOCCOCCOCCOCCOCCOCCOC)c(C(=O)N(C)C)n1-c1ccc(OC)cc1` [UL1-119, 2-(dimethylcarbamoyl)-5-(ethoxycarbonyl)-1-(4-methoxyphenyl)-1H-pyrrole-3,4-diyl bis(25,25-dimethyl-2,5,8,11,14,17,20,23-octaoxahexacosan-26-oate)] had an IC50 of under 10 µM.
Same read-out and setting: then `COCCOCCOCCOCCOCCOCCOCCOCC(C)(C)C(=O)Oc1c(OC(=O)C(C)(C)COCCOCCOCCOCCOCCOCCOCCOC)c(C(=O)N(C)C)n(-c2ccc(OC)cc2)c1C(=O)N(C)C` [UL1-120, 2,5-bis(dimethylcarbamoyl)-1-(4-methoxyphenyl)-1H-pyrrole-3,4-diyl bis(25,25-dimethyl-2,5,8,11,14,17,20,23-octaoxahexacosan-26-oate)], with 10 to 20 µM.
`COc1ccc(-n2c(C(=O)N(C)C)c(OC(=O)C(C)(C)COCCOCCOP(=O)(O)O)c(OC(=O)C(C)(C)COCCOCCOP(=O)(O)O)c2C(=O)N(C)C)cc1` [UL1-121, 2,5-bis(dimethylcarbamoyl)-1-(4-methoxyphenyl)-1H-pyrrole-3,4-diyl bis(2,2-dimethyl-3-(2-(2-(phosphonooxy)ethoxy)ethoxy)propanoate)] yielded an IC50 of 10 to 20 µM.
The same measure, in the same setting: then `COc1ccc(-n2c(C(=O)OC(C)C)c(OC(=O)C(C)(C)COCCOCCOP(=O)(O)O)c(OC(=O)C(C)(C)COCCOCCOP(=O)(O)O)c2C(=O)N(C)C)cc1` [UL1-122, 2-(dimethylcarbamoyl)-5-(isopropoxycarbonyl)-1-(4-methoxyphenyl)-1H-pyrrole-3,4-diyl bis(2,2-dimethyl-3-(2-(2-(phosphonooxy)ethoxy)ethoxy)propanoate)], with under 10 µM; and `COc1ccc(-n2c(C(=O)N(C)C)c(OC(=O)C3CCNCC3)c(OC(=O)C3CCNCC3)c2C(=O)N(C)C)cc1` [UL1-123, 2,5-bis(dimethylcarbamoyl)-1-(4-methoxyphenyl)-1H-pyrrole-3,4-diyl bis(piperidine-4-carboxylate)], with under 10 µM.
Still for that read-out and setting: then `COc1ccc(-n2c(C(=O)N(C)C)c(OC(=O)c3ccc(COP(=O)(O)O)cc3)c(OC(=O)c3ccc(COP(=O)(O)O)cc3)c2C(=O)N(C)C)cc1` [UL1-124, 2,5-bis(dimethylcarbamoyl)-1-(4-methoxyphenyl)-1H-pyrrole-3,4-diyl bis(4-((phosphonooxy)methyl)benzoate)], with under 10 µM.
As to `COc1ccc(-n2c(C(=O)N(C)C)c(O)c(O)c2P(C)(C)=O)cc1` [UL1-125, 5-(dimethylphosphoryl)-3,4-dihydroxy-1-(4-methoxyphenyl)-N,N-dimethyl-1H-pyrrole-2-carboxamide], the concentration for half-maximal inhibition (IC50) is under 10 µM.
On the same count and under the same terms, under `COc1ccc(-n2c(C(=O)N(C)C)c(OC(=O)[C@H]3CC[C@H](COP(=O)(O)O)CC3)c(OC(=O)[C@H]3CC[C@H](COP(=O)(O)O)CC3)c2C(=O)N(C)C)cc1` [UL1-126, (1R,1′R,4R,4′R)-2,5-bis(dimethylcarbamoyl)-1-(4-methoxyphenyl)-1H-pyrrole-3,4-diyl bis(4-((phosphonooxy)methyl)cyclohexanecarboxylate)] stands under 10 µM.
Still for that read-out and setting: then `CCOC(=O)c1c(O)c(O)c(C(=O)OCC)n1-c1ccccc1` [UL2-002, diethyl 3,4-dihydroxy-1-phenyl-1H-pyrrole-2,5-dicarboxylate], with under 10 µM; and `CCOC(=O)c1c(O)c(O)c(C(=O)OCC)n1-c1ccc(F)cc1` [UL2-003, diethyl 1-(4-fluorophenyl)-3,4-dihydroxy-1H-pyrrole-2,5-dicarboxylate], with 10 to 20 µM.
On the same count and under the same terms, under `CCOC(=O)c1c(O)c(O)c(C(=O)OCC)n1-c1cccc(OC)c1` [UL2-004, diethyl 3,4-dihydroxy-1-(3-methoxyphenyl)-1H-pyrrole-2,5-dicarboxylate] stands 10 to 20 µM.
On to `CCOC(=O)c1c(O)c(O)c(C(=O)OCC)n1-c1ccc(OC(F)(F)F)cc1` [UL2-005, diethyl 3,4-dihydroxy-1-(4-(trifluoromethoxy)phenyl)-1H-pyrrole-2,5-dicarboxylate], for which the IC50 was under 10 µM.
Still for that read-out and setting: under `CCOC(=O)c1c(O)c(O)c(C(=O)OCC)n1-c1ccc(C(C)C)cc1` [UL2-006, diethyl 3,4-dihydroxy-1-(4-isopropylphenyl)-1H-pyrrole-2,5-dicarboxylate] stands under 10 µM; under `CCOC(=O)c1c(O)c(O)c(C(=O)OCC)n1-c1ccc(Oc2ccccc2)cc1` [UL2-007, diethyl 3,4-dihydroxy-1-(4-phenoxyphenyl)-1H-pyrrole-2,5-dicarboxylate], under 10 µM; under `CCOC(=O)c1c(O)c(O)c(C(=O)OCC)n1-c1ccc(OCC)cc1` [UL2-008, diethyl 1-(4-ethoxyphenyl)-3,4-dihydroxy-1H-pyrrole-2,5-dicarboxylate], under 10 µM.
The molecule `CCOC(=O)c1c(O)c(O)c(C(=O)OCC)n1-c1ccc(CC)cc1` [UL2-009, diethyl 1-(4-ethylphenyl)-3,4-dihydroxy-1H-pyrrole-2,5-dicarboxylate] registered an IC50 of under 10 µM.
Still for that read-out and setting: then `CCOC(=O)c1c(O)c(O)c(C(=O)OCC)n1-c1ccc(C)cc1` [UL2-010, diethyl 3,4-dihydroxy-1-(p-tolyl)-1H-pyrrole-2,5-dicarboxylate], with under 10 µM.
Still for that read-out and setting: under `CCOC(=O)c1c(O)c(O)c(C(=O)OCC)n1-c1ccc(OC)c(OC)c1` [UL2-011, diethyl 1-(3,4-dimethoxyphenyl)-3,4-dihydroxy-1H-pyrrole-2,5-dicarboxylate] stands under 10 µM; under `CCOC(=O)c1c(O)c(O)c(C(=O)OCC)n1-c1ccc(Cl)cc1` [UL2-012, diethyl 1-(4-chlorophenyl)-3,4-dihydroxy-1H-pyrrole-2,5-dicarboxylate], under 10 µM.
Same read-out and setting: under `CCOC(=O)c1c(O)c(O)c(C(=O)OCC)n1-c1ccc(C(F)(F)F)cc1` [UL2-013, diethyl 3,4-dihydroxy-1-(4-(trifluoromethyl)phenyl)-1H-pyrrole-2,5-dicarboxylate] stands under 10 µM.
Take `CCOC(=O)c1c(O)c(O)c(C(=O)OCC)n1-c1cc(OC)c(OC)c(OC)c1` [UL2-014, diethyl 3,4-dihydroxy-1-(3,4,5-trimethoxyphenyl)-1H-pyrrole-2,5-dicarboxylate]: the IC50 was under 10 µM.
`CCOC(=O)c1c(O)c(O)c(C(=O)OCC)n1-c1ccc(OC)cc1OC` [UL2-015, diethyl 1-(2,4-dimethoxyphenyl)-3,4-dihydroxy-1H-pyrrole-2,5-dicarboxylate] gave an IC50 of under 10 µM.
Still for that read-out and setting: then `CCCOc1ccc(-n2c(C(=O)OCC)c(O)c(O)c2C(=O)OCC)cc1` [UL2-016, diethyl 3,4-dihydroxy-1-(4-propoxyphenyl)-1H-pyrrole-2,5-dicarboxylate], with under 10 µM.
Same read-out and setting: then `CCOC(=O)c1c(O)c(O)c(C(=O)OCC)n1-c1cc(F)c(OCC)c(F)c1` [UL2-017, diethyl 1-(4-ethoxy-3,5-difluorophenyl)-3,4-dihydroxy-1H-pyrrole-2,5-dicarboxylate], with under 10 µM.
On the same count and under the same terms, under `CCOC(=O)c1c(O)c(O)c(C(=O)OCC)n1-c1cccc(Oc2ccccc2)c1` [UL2-018, diethyl 3,4-dihydroxy-1-(3-phenoxyphenyl)-1H-pyrrole-2,5-dicarboxylate] stands under 10 µM.

Staying with this test, now noted: IC50, inhibition of pneumolysin-induced haemolysis of sheep erythrocytes; specific values.
As for `CCOC(=O)c1c(O)c(O)c(C(=O)N(C)C)n1-c1ccc(OCCCP(=O)(OCC)OCC)cc1` [UL1-106, ethyl 1-(4-(3-(diethoxyphosphoryl)propoxy)phenyl)-5-(dimethylcarbamoyl)-3,4-dihydroxy-1H-pyrrole-2-carboxylate], the IC50 is 0.17 µM.
The same measure, in the same setting: under `COc1ccc(-n2c(C(=O)OC3CCCC3)c(O)c(O)c2C(=O)N(C)C)cc1` [UL1-116, cyclopentyl 5-(dimethylcarbamoyl)-3,4-dihydroxy-1-(4-methoxyphenyl)-1H-pyrrole-2-carboxylate] stands 0.18 µM.
